Results reported in patent US20240350643A1, “PROTEIN DEGRADATION AGENT” (SUZHOU KINTOR PHARMACEUTICALS, INC., priority 2021, published 2024).
Like-named read-outs stand apart in the source and are kept apart here.

What was measured:
[1] = target: T1, c-Myc protein (Homo sapiens, UniProt P01106); assay: Ability of compounds to degrade c-Myc protein in HL60 cells (ELISA); type: cell-based; settings: HL-60, 1 μM compound, 24 h, read-out: HL60 cells Protein degradation rate (1 μM)
T1 construct: endogenous in cells; host or cells: HL60 cells
Method: I Activity test 1: Ability of compounds to degrade c-Myc protein in HL60 cells:
HL60 cells in the exponential growth phase were centrifuged, diluted with fresh culture mediums to 6×10^4 cells/100 μL and plated into a 96-well plate at 100 μL per well.
Preparation of test compounds: the compounds were weighed and diluted with DMSO to a 10 mM stock solution for later use. According to test requirements, drugs were diluted with cell culture mediums, with ten-fold dilutions starting from 10 μM, to achieve 3 concentration gradients: 10 μM, 1 μM and 100 NM; and finally, 1 μL of the drugs (DMSO content: 0.01%) were added to each well. For the blank control group, DMSO was also diluted with cell culture mediums, and finally, 1 μL of the control reagent (DMSO content: 0.01%) was added to each well.
3. Effect of drugs on c-Myc in cells as determined by ELISA
After 24 h of drug action, the culture mediums were removed, and the cells were washed once with ice-cold 1× PBS. PBS was removed, and 100 μL of ice-cold 1× Cell Lysis Buffer plus 1 mM phenylmethylsulfonyl fluoride (PMSF) was added to each well. The plate was incubated on ice for 20 min and centrifuged at 4000 RPM at 4° C. for 10 min for later use.
4. Reagent and antibody preparation in ELISA kit 1× wash buffer • 1). 16 mL of ELISA wash buffer concentrate (25×) was diluted with 384 mL of deionized water or distilled water, labeled as 1× Wash Buffer. • 2). The concentrate and 1× Wash Buffer were stored in the refrigerator. The diluted buffer was used within 14 days.
The cell extraction buffer contains 10 mM Tris (pH 7.4), 100 mM NaCl, 1 mM EDTA, 1 mM EGTA, 1 mM NaF, 20 mM Na4P2O7 2 mM Na3VO4. 1% Triton™ ×-100, 10% glycerol, 0.1% SDS and 0.5% deoxycholate. Immediately before use, PMSF (0.3 M stock solution in DMSO) was added to the buffer to a final concentration of 1 mM.
Standard curve configuration: The standard liquid was diluted using glass or plastic tubes. • 1). Huc-Myc (total) standard liquid (Invitrogen, KH02041) was reconstituted with a standard dilution to 1000 pg/mL. Refer to the standard vial label for instructions. The contents were gently swirled or mixed and then allowed to stand for 10 minutes to ensure complete reconstitution, labeled as 1,000 pg/mL human c-Myc. The standard liquid was used within 1 hour after reconstitution. • 2). 250 μL of standard dilution buffers were added to 7 test tubes respectively labeled 500, 250, 125, 62.5, 31.25, 15,63 and 0 pg/mL. • 3). 250 μL of the 1000 pg/ml standard stock solution was added to the first EP tube to a concentration of 500 pg/mL, vortexed and mixed evenly. 250 μL of the resulting mixture was further pipetted and added to the second EP tube to a concentration of 250 pg/mL. Serial dilutions were performed until the sixth EP tube with a concentration of 15.63 pg/mL. Dilution was not performed on the last EP tube. • 4). The remaining reconstituted standard liquid should be discarded, or aliquoted and frozen at −80° C. for further use. Standards can be frozen and thawed only once without losing immunoreactivity.
1× anti-rabbit IgG HRP solution: 1× anti-rabbit IgG HRP solution was prepared within 15 minutes of use. The anti-rabbit IgG HRP (100×) contained 50% viscous glycerol. To ensure accurate dilutions, the following operations were carried out: 1 For each 8-well test strip used in the test, 10 μl, of the anti-rabbit IgG -IRP (100×) solution was pipetted, wherein the pipette tip was wiped with clean absorbent paper to remove excess solutions, and then the solution was dispensed into a test tube containing 1 mL of HRP diluent and mixed thoroughly. 2. The unused anti-rabbit IgG HRP (100×) was placed in the refrigerator for storage.
50 μL of the standard liquid was added to the appropriate wells and not added to the blank control well. Except for the blank control well, 50 μL of Hu c-Myc (total) detection antibody solution was added to each well and mixed by tapping the side face of the plate. […]

[2] = system: HL60 cells; assay: Anti-proliferation ability of compounds on HL60 cells (CTG); type: cell-based, human; settings: 3 days, CellTiter-Glo, read-out: HL60 cells Proliferation inhibitory activity
Method: II. Activity test 2: Anti-proliferation ability of compounds on HL60 cells: 1 Cell plating
HL60 cells in the logarithmic growth phase were counted and plated evenly in a 96-well transparent bottom white plate at 20000 cells per well and 100 μL per well.
A certain amount of the compounds was weighed and diluted with DMSO to a 10 mM stock solution. The culture mediums corresponding to the cells were taken, and the drugs were diluted to the concentration required by the test, shaken gently and mixed evenly. 50 μl of the gradient dilution of the diluted compound was added to each well of the plated cells, and 50 μL of 0.1% DMSO was added to the control group. The plate was shaken gently, mixed evenly and incubated in a cell culture incubator for 3 days.
• 3.1 The CellTiter-GLo™ (CTG) reagent was taken in advance from the −20° C. refrigerator and equilibrated to room temperature in the dark (white bottle+brown bottle, 1:1 mixing evenly into the brown bottle, for later use). • 3.2 The 96-well plate was taken out and inspected under a microscope for growth situation. • 3.3 The bottom of the 96-well plate was tagged with white paper, and then the plate was wrapped with tin foil paper, shaken at 37° C. at 300 r for 10 min and mixed evenly. • 3.4 50 ul of CTG detection reagent was added to each well, Luminescence signal was detected using a microplate reader, and the inhibition rate was calculated. IC50 values of the compounds were calculated by XLfit software to evaluate the proliferation inhibitory activity on HL60 cells.

T1 sequence (P01106 whole entry): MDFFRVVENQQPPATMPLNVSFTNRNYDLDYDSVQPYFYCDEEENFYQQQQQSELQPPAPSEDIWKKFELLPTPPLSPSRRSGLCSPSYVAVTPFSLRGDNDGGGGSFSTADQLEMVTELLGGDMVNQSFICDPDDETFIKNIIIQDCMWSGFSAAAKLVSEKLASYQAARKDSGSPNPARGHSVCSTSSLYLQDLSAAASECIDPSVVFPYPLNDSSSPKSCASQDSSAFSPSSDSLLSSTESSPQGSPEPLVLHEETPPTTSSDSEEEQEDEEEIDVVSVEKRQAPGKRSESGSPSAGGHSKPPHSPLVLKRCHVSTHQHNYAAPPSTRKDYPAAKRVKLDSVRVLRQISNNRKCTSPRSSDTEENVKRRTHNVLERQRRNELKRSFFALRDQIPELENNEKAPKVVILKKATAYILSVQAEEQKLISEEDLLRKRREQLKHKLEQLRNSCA

Compound | inhibition at 1 µM [1] [%] | IC50 ([2]; Homo sapiens, HL-60, 72 h) [nM] | IC50 [2] [nM]
O=C(Cn1c2ccccc2c2ccccc21)NCCCCCCNC(=O)c1ccc2c(c1)C(=O)N(C1CCC(=O)NC1=O)C2=O (centres unmarked) [A1] | 30 to 60 | 335 ± 83.1 | 
O=C(Cn1c2ccccc2c2cccnc21)NCCCCCCNC(=O)c1ccc2c(c1)C(=O)N(C1CCC(=O)NC1=O)C2=O (centres unmarked) [A2] | 30 to 60 | 50.7 ± 11.4 | 
O=C(Cn1c2ccccc2c2ccncc21)NCCCCCCNC(=O)c1ccc2c(c1)C(=O)N(C1CCC(=O)NC1=O)C2=O (centres unmarked) [A3] | 30 to 60 |  | 
O=C(Cn1c2ncccc2c2cccnc21)NCCCCCCNC(=O)c1ccc2c(c1)C(=O)N(C1CCC(=O)NC1=O)C2=O (centres unmarked) [A4] | 10 to 30 | 221 ± 54.5 | 
O=C(CN(c1ccccc1)c1ccccc1)NCCCCCCNC(=O)c1ccc2c(c1)C(=O)N(C1CCC(=O)NC1=O)C2=O (centres unmarked) [A5] | 30 to 60 | 391 ± 4.7 | 
O=C(CN1c2ccccc2Oc2ccccc21)NCCCCCCNC(=O)c1ccc2c(c1)C(=O)N(C1CCC(=O)NC1=O)C2=O (centres unmarked) [A7] | 30 to 60 | 320 ± 38 | 
O=C(Cc1cccc2ccccc12)NCCCCCCNC(=O)c1ccc2c(c1)C(=O)N(C1CCC(=O)NC1=O)C2=O (centres unmarked) [A8] | 30 to 60 | 69.8 ± 8.8 | 
O=C(Cc1ccc2ccccc2c1)NCCCCCCNC(=O)c1ccc2c(c1)C(=O)N(C1CCC(=O)NC1=O)C2=O (centres unmarked) [A9] | 30 to 60 | 570 ± 38 | 
O=C1CCC(N2C(=O)c3ccc(C(=O)NCCCCCCNC(=O)NC4c5ccccc5-c5ccccc54)cc3C2=O)C(=O)N1 (centres unmarked) [A10] | 10 to 30 | 1213 ± 4 | 
O=C(CC1c2ccccc2-c2ccccc21)NCCCCCCNC(=O)c1ccc2c(c1)C(=O)N(C1CCC(=O)NC1=O)C2=O (centres unmarked) [A11] | 10 to 30 | 1240 ± 490 | 
O=C1CCC(N2Cc3cc(C(=O)NC[C@H]4CC[C@H](NC(=O)NCc5cccc6ccccc56)CC4)ccc3C2=O)C(=O)N1 (some centres unmarked) [A198] |  | 17.8 ± 1.9 | 
O=C(CN1CCCc2cccnc21)NCc1ccc(CNC(=O)c2ccc3c(c2)CN(C2CCC(=O)NC2=O)C3=O)cc1 (centres unmarked) [A202] |  | 6.4 ± 2.7 | 
CN(CCn1c2ccccc2c2cccnc21)Cc1ccc(CC(=O)Nc2ccc3c(c2)CN(C2CCC(=O)NC2=O)C3=O)cc1 (centres unmarked) [A206] |  | 0.5 ± 0.2 | 
O=C(Cn1c2ccccc2c2cccnc21)NCc1ccc(CNC(=O)c2ccc3c(c2)CN(C2CCC(=O)NC2=O)C3=O)c(OC(F)(F)F)c1 (centres unmarked) [A207] |  | 0.2 | 
O=C(Cn1c2ccccc2c2cccnc21)NCc1ccc(CNC(=O)c2ccc3c(c2)CN(C2CCC(=O)NC2=O)C3=O)c(C(F)(F)F)c1 (centres unmarked) [A209] |  |  | 0.9
N#Cc1cc(CNC(=O)Cn2c3ccccc3c3cccnc32)ccc1CNC(=O)c1ccc2c(c1)CN(C1CCC(=O)NC1=O)C2=O (centres unmarked) [A210] |  | 3.6 ± 1.8 | 
N#Cc1cc(CNC(=O)Cn2c3ccccc3c3cccnc32)ccc1CC(=O)Nc1ccc2c(c1)CN(C1CCC(=O)NC1=O)C2=O (centres unmarked) [A211] |  | 13.3 ± 1 | 
O=C1CCC(N2Cc3cc(C(=O)NCc4ccc(C5(NC(=O)Cn6c7ccccc7c7cccnc76)CC5)cc4)ccc3C2=O)C(=O)N1 (centres unmarked) [A212] |  | 1.5 ± 0.1 | 

Compound | inhibition at 1 µM [1] [%] | IC50 ([2]; Homo sapiens, HL-60, 72 h) [nM] | IC50 [2] [nM]
O=C(Cn1c2ccccc2c2cccnc21)NCc1ccc(C2(NC(=O)c3ccc4c(c3)CN(C3CCC(=O)NC3=O)C4=O)CC2)cc1 (centres unmarked) [A213] |  | 5.4 ± 1.9 | 
O=C1CCC(N2Cc3cc(C(=O)NCc4ccc(C5(NC(=O)Cn6c7ccccc7c7cccnc76)CC5)cn4)ccc3C2=O)C(=O)N1 (centres unmarked) [A214] |  | 5.2 ± 1.4 | 
O=C(Cn1c2ccccc2c2cccnc21)NCc1ccc(C2(NC(=O)c3ccc4c(c3)CN(C3CCC(=O)NC3=O)C4=O)CC2)cn1 (centres unmarked) [A215] |  | 186 ± 67 | 
O=C(Cn1c2ccccc2c2cccnc21)NCc1ccc(C2(NC(=O)c3ccc4c(c3)CN(C3CCC(=O)NC3=O)C4=O)CC2)cc1F (centres unmarked) [A216] |  | 3.5 ± 1.1 | 
Cc1cc(CNC(=O)Cn2c3ccccc3c3cccnc32)ccc1CNC(=O)c1ccc2c(c1)CN(C1CCC(=O)NC1=O)C2=O (centres unmarked) [A217] |  | 0.6 | 
O=C(Cn1c2ccccc2c2cccnc21)NCc1ccc(CC(=O)Nc2ccc3c(c2F)CN(C2CCC(=O)NC2=O)C3=O)c(C(F)(F)F)c1 (centres unmarked) [A218] |  | 3.3 ± 0.8 | 
O=C(Cn1c2ccccc2c2cccnc21)NCc1ccc(CC(=O)Nc2cc3c(cc2F)C(=O)N(C2CCC(=O)NC2=O)C3)c(C(F)(F)F)c1 (centres unmarked) [A219] |  | 7.8 ± 2 | 
O=C(Cn1c2ccccc2c2cccnc21)NCc1ccc(CNC(=O)c2cc3c(cc2F)C(=O)N(C2CCC(=O)NC2=O)C3)cc1 (centres unmarked) [A222] |  | 0.6 ± 0.2 | 
O=C(Cn1c2ccccc2c2cccnc21)NCc1ccc(CNC(=O)c2ccc3c(c2F)CN(C2CCC(=O)NC2=O)C3=O)cc1 (centres unmarked) [A223] |  | 0.7 ± 0.4 | 
CC(C)(C)C(=O)OCN1C(=O)CCC(N2Cc3cc(C(=O)NCc4ccc(CNC(=O)Cn5c6ccccc6c6cccnc65)cc4)ccc3C2=O)C1=O (centres unmarked) [A226] |  | 1 | 
N#Cc1cccc2c3ccccc3n(CC(=O)NCc3ccc(CNC(=O)c4ccc5c(c4)CN(C4CCC(=O)NC4=O)C5=O)cc3)c12 (centres unmarked) [A229] |  | < 3.04 | 
O=C1CCC(N2Cc3cc(C(=O)NCc4ccc(CN(CCc5cccc6ccccc56)CCc5cccc6ccccc56)cc4)ccc3C2=O)C(=O)N1 (centres unmarked) [A230] |  | 11.8 ± 1.2 | 
O=C1CCC(N2Cc3cc(C(=O)NCc4ccc(CNCCc5cccc6ccccc56)cc4)ccc3C2=O)C(=O)N1 (centres unmarked) [A231] |  | < 3.04 | 
O=C1CCC(N2Cc3cc(C(=O)NCc4ccc(CN(CCc5cccc6ccccc56)C(=O)CO)cc4)ccc3C2=O)C(=O)N1 (centres unmarked) [A232] |  | 0.54 | 
O=C1CCC(N2Cc3cc(C(=O)NCc4ccc(CN(CCO)CCc5ccc(Cl)c(Cl)c5)cc4)ccc3C2=O)C(=O)N1 (centres unmarked) [A233] |  | < 3.04 | 
O=C1CCC(N2Cc3cc(C(=O)NCc4ccc(CN(CCO)CCc5cccc6ccccc56)cc4)ccc3C2=O)C(=O)N1 (centres unmarked) [A234] |  | 0.71 ± 0.04 | 
O=C(Cn1c2ccccc2c2cccc(CO)c21)NCc1ccc(CNC(=O)c2ccc3c(c2)C(=O)N(C2CCC(=O)NC2=O)C3=O)cc1 (centres unmarked) [A236] |  | 6.3 ± 1.2 | 
